Source: US20050272700A1, “Topical treatment and prevention of human papilloma virus (HPV) infection” (priority 2004, published 2005)

What was measured:
[1] = Stability testing of I3C solutions and formulations by HPLC; assay type: physicochemical; settings: for amount of the active remaining: aqueous medium, 5° C.; for loss of potency: 2 weeks
Description: Stability testing of the formulations was performed by HPLC analysis. The area of the peak representing I3C or a derivative thereof was monitored.

[2] = tested on: DMBA-induced mammary tumors; settings: Wattenberg and Loub 1978; cited from earlier work

| SMILES | amount of the active remaining ([1]; pH 6.0, 2 weeks) | amount of the active remaining ([1]; pH 8.0, 2 weeks) | loss of potency ([1]; same aqueous composition at pH 7.4 without hydroxypropyl-β-cyclodextrin) [%] | loss of potency ([1]; solution at pH 7.4 with added hydroxypropyl-β-cyclodextrin) [%] | reduction of DMBA-induced mammary tumors [2] |
| --- | --- | --- | --- | --- | --- |
| OCc1c[nH]c2ccccc12 [Composition I3C, indole-3-carbinol] | completely decomposed | about 93% | 16 | 1.3 | – |
| c1ccc2c(Cc3c[nH]c4ccccc34)c[nH]c2c1 [DIM, 3,3′-diindoylmethane] | – | – | – | – | somewhat effective |
